Test: Glucose challenge model
Assay type: in vivo, male CD1 mice
Details: mice, IP glucose challenge; 10 μg IP injection
Excerpt: The glucose challenge model used to test SEQ ID NO: 70-Exenatide was designed to examine the capacity of a GLP-1-like activity to enhance the rate of recovery from a glucose excursion.
The male CD1 mice used in the glucose challenge test were 9-16 weeks of age. To minimize stress due to handling, animals were acclimatized to the environment, blood sampling, and dosing procedures for 1 week prior to the start of experiments, as plasma glucose can be responsive to handling stress. Mice were fasted for 18 h prior to study. […] Blood samples were taken at t=0, 15, 30, 45, 60 min; 2, 3, and 4 hr. Blood glucose measurements were made using 5 μL blood sample taken from the tail with a commercial glucometer that was calibrated with glucose standards prior to the start of the study.

Exenatide (1-40)-Gly
time at which correction of the blood glucose excursion began: 15 min
time by which the correction profile was completed: ≤ 120 min
